Data reported in patent US10173983B2, “Fungicidal pyridylamidines” (Syngenta Participations AG, priority 2014, dated 2019).

Tests used:
Assay type in all cases: in vivo
[1] = system: Blumeria graminis f. Sp. tritici (Erysiphe graminis f. sp. tritici); assay: Blumeria graminis f. sp. tritici / wheat / leaf disc preventative (powdery mildew on wheat); details: foliar, wheat leaf segments cv. Kanzler, inoculated 1 day after application, assessed 6-8 days after application, compared to untreated, read-out: disease control
Experimental: Blumeria graminis f. Sp. tritici (Erysiphe graminis f. sp. tritici)/Wheat/Leaf Disc Preventative (Powdery Mildew on Wheat) Wheat leaf segments cv. Kanzler were placed on agar in a multiwell plate (24-well format) and sprayed with the formulated test compound diluted in water. The leaf disks were inoculated by shaking powdery mildew infected plants above the test plates 1 day after application. The inoculated leaf disks were incubated at 20° C. and 60% rh under a light regime of 24 h darkness followed by 12 h light/12 h darkness in a climate chamber and the activity of a compound was assessed as percent disease control compared to untreated when an appropriate level of disease damage appears on untreated check leaf segments (6-8 days after application). The following compounds gave at 200 ppm give at least 80% disease control in this test when compared to untreated control leaf disks under the same conditions, which show extensive disease development: […]

[2] = system: Puccinia recondita f. sp. tritici; assay: Puccinia recondita f. sp. tritici / wheat / leaf disc preventative (brown rust); details: foliar, 168 h, wheat leaf segments cv. Kanzler, inoculated 1 day after application, assessed 7-9 days after application, compared to untreated, read-out: disease control
Experimental: Puccinia recondita f. sp. tritici/Wheat/Leaf Disc Preventative (Brown Rust) Wheat leaf segments cv. Kanzler were placed on agar in multiwell plates (24-well format) and sprayed with the formulated test compound diluted in water. The leaf disks were inoculated with a spore suspension of the fungus 1 day after application. The inoculated leaf segments were incubated at 19° C. and 75% rh under a light regime of 12 h light/12 h darkness in a climate cabinet and the activity of a compound was assessed as percent disease control compared to untreated when an appropriate level of disease damage appears in untreated check leaf segments (7-9 days after application). The following compounds gave at 200 ppm gave at least 80% disease control in this test when compared to untreated control leaf disks under the same conditions, which show extensive disease development: […]

Phakopsora pachyrhizi = Phakopsora pachyrhizi on soybean, preventive treatment; details: 264 h, 1 day preventive, triazole tolerant soybean rust strain, evaluated 11 days after application, compared to untreated, read-out: disease control
Experimental: Phakopsora pachyrhizi on Soybean, Preventive Treatment
The compound activity was tested under 1 day preventive conditions. Soybean plants with a fully enfolded first trifoliate leaf were sprayed with a track sprayer and 50 l/ha spray volume with the test compounds, either solo or in tankmix as shown in the table below. 1 day after application leaf discs were cut from the first trifoliate leaf and placed in multiwell plates on water-agar. 5 leaf discs per treatment where infested with spores of a triazole tolerant soybean rust strain. The multiwell plates where sealed and placed in an incubator 48 h in darkness and 12 h light/dark cycle afterwards. Rust infestation on leaf discs was evaluated visually 11 days after application and average activity calculated in relation to disease severity on untreated check leaf discs.
The following compounds gave at 200 ppm gave at least 80% disease control in this test when compared to untreated control leaf disks under the same conditions, which show extensive disease development: […]

[3] = system: Puccinia recondita f. sp. tritici; assay: Puccinia recondita f. sp. tritici / wheat / leaf disc curative (brown rust); details: foliar, wheat leaf segments cv. Kanzler, compound applied 1 day after inoculation, assessed 6-8 days after application, compared to untreated, read-out: disease control
Experimental: Puccinia recondita f. sp. tritici/Wheat/Leaf Disc Curative (Brown Rust) Wheat leaf segments cv. Kanzler are placed on agar in multiwell plates (24-well format). The leaf segments are inoculated with a spore suspension of the fungus. Plates were stored in darkness at 19° C. and 75% rh. The formulated test compound diluted in water was applied 1 day after inoculation. The leaf segments were incubated at 19° C. and 75% rh under a light regime of 12 h light/12 h darkness in a climate cabinet and the activity of a compound was assessed as percent disease control compared to untreated when an appropriate level of disease damage appears in untreated check leaf segments (6-8 days after application). The following compounds gave at 200 ppm gave at least 80% disease control in this test when compared to untreated control leaf disks under the same conditions, which show extensive disease development: […]

Measured: pest or weed control at 200 ppm

CCCOCC(C)Oc1nc(C)c(N=CN(C)CC)cc1OC(F)F (stereo not drawn) [Q.010, N′-[5-(difluoromethoxy)-2-methyl-6-(1-methyl-2-propoxy-ethoxy)-3-pyridyl]-N-ethyl-N-methyl-formamidine]
≥ 80%: all assays above

CCCOCC(C)Oc1nc(C)c(N=CN(C)CC)cc1C(F)F (stereo not drawn) [Q.009, N′-[5-(difluoromethyl)-2-methyl-6-(1-methyl-2-propoxy-ethoxy)-3-pyridyl]-N-ethyl-N-methyl-formamidine]
≥ 80%: all assays above

C=CCOCC(C)Oc1nc(C)c(N=CN(C)CC)cc1Cl (stereo not drawn) [Q.014, N′-[6-(2-allyloxy-1-methyl-ethoxy)-5-chloro-2-methyl-3-pyridyl]-N-ethyl-N-methyl-formamidine]
≥ 80%: all assays above

CCN(C)C=Nc1cc(Br)c(OC(C)COc2ccccc2)nc1C (stereo not drawn) [Q.028, N′-[5-bromo-2-methyl-6-(1-methyl-2-phenoxy-ethoxy)-3-pyridyl]-N-ethyl-N-methyl-formamidine]
≥ 80%: all assays above

CCCOCC(C)Oc1nc(C)c(/N=C/N(C)CC)cc1Br (stereo not drawn) [Q.013, N′-[5-bromo-2-methyl-6-(1-methyl-2-propoxy-ethoxy)-3-pyridyl]-N-ethyl-N-methyl-formamidine]
≥ 80%: all assays above

CCCOCC(C)Oc1nc(C)c(N=CN(C)C(C)C)cc1Br (stereo not drawn) [Q.018, N′-[5-bromo-2-methyl-6-(1-methyl-2-propoxy-ethoxy)-3-pyridyl]-N-isopropyl-N-methyl-formamidine]
≥ 80%: all assays above
